Laboratory results reported in ChEMBL document CHEMBL3991601, “The target landscape of clinical kinase drugs” (Science, 2017).
The source made the active and inactive calls. Cut-off read from the data, not from the text of the source, for most assays here: actives have a measured Kd and inactives only a lower limit.

How the values were obtained:
[1] = molecular target: MAP kinase-activated protein kinase 2 (Homo sapiens, UniProt P49137)
[2] = molecular target: Cyclin-dependent kinase 1 (Homo sapiens, UniProt P06493)
Chain of Cyclin-dependent kinase 1 (P06493 whole entry): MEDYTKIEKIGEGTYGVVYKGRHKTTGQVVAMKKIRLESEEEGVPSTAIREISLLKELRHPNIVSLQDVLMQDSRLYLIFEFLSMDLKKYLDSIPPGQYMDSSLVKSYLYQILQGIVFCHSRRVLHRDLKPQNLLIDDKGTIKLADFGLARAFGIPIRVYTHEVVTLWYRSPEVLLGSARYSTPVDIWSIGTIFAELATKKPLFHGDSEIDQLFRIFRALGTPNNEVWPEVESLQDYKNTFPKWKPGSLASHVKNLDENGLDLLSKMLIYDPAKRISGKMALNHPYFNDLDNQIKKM

[3] = molecular target: Tyrosine-protein kinase SYK (Homo sapiens, UniProt P43405)
[4] = molecular target: T1, Phenylalanine--tRNA ligase beta subunit (Homo sapiens, UniProt Q9NSD9)
T1 sequence (Q9NSD9 whole entry): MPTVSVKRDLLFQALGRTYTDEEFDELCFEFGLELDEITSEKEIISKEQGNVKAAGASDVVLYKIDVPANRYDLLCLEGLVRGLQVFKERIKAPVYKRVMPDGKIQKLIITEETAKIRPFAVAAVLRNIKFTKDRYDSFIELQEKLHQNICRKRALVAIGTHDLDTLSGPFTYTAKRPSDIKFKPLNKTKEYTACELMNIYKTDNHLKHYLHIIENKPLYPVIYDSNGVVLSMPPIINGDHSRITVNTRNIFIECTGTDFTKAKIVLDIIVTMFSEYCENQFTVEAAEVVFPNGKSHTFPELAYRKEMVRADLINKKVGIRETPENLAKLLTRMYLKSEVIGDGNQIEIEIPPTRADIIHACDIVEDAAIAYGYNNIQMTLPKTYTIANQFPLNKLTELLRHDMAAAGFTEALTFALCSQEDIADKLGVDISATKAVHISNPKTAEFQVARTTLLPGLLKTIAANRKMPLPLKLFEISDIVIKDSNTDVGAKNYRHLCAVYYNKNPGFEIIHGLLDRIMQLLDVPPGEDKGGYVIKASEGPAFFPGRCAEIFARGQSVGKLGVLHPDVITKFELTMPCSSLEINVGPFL

[5] = molecular target: Deoxycytidine kinase (Homo sapiens, UniProt P27707)
Chain of Deoxycytidine kinase (P27707 whole entry): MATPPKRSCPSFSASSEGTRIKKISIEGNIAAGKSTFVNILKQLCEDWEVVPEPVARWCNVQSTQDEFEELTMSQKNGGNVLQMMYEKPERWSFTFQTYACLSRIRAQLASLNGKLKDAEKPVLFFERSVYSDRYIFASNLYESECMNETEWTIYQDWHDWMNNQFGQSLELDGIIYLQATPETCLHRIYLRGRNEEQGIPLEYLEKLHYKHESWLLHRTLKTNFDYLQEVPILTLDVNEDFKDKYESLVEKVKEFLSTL

[6] = molecular target: T2, Acyl-CoA dehydrogenase family member 11 (Homo sapiens, UniProt Q709F0)
T2 sequence (Q709F0 whole entry): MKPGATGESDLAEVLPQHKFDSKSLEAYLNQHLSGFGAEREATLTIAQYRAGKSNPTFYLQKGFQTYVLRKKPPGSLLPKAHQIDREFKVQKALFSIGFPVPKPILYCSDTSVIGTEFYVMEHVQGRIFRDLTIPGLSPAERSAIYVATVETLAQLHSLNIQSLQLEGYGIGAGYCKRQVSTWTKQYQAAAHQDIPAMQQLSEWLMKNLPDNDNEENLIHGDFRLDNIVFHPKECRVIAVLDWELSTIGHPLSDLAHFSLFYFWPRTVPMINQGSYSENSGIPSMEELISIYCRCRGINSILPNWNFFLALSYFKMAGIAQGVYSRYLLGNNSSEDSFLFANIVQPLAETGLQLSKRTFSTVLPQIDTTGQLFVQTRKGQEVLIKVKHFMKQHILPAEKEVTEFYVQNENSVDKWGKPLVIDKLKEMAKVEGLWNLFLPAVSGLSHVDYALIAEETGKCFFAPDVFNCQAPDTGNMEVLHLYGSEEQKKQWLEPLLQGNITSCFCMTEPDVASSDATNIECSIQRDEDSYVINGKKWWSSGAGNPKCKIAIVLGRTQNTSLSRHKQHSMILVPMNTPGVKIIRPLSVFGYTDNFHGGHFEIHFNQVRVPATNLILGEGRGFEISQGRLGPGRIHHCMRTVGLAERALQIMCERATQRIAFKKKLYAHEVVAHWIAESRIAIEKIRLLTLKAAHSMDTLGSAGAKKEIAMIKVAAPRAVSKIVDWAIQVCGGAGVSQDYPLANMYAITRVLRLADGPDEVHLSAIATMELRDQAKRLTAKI

[7] = molecular target: Insulin-like growth factor 1 receptor (Homo sapiens, UniProt P08069)
Chain of Insulin-like growth factor 1 receptor (P08069 31-736 limits assumed): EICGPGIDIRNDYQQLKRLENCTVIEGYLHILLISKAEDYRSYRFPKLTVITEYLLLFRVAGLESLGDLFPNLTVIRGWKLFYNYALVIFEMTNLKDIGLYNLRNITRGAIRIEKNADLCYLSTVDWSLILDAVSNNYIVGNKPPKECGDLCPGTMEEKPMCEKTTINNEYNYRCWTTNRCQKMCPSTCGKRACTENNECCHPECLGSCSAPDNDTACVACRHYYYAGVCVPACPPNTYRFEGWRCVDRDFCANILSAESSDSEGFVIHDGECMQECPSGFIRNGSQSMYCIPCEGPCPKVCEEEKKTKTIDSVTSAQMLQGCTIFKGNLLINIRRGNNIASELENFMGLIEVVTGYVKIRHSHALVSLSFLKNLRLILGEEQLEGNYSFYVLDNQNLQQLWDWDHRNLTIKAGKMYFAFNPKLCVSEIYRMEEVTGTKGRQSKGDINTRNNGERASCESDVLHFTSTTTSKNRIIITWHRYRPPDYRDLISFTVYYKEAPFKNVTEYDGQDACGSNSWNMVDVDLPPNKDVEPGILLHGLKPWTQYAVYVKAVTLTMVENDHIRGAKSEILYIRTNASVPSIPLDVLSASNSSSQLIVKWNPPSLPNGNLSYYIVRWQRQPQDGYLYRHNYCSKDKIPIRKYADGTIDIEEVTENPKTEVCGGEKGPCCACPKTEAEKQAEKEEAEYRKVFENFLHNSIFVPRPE
Chain of Insulin-like growth factor 1 receptor (P08069 741-1367 limits assumed): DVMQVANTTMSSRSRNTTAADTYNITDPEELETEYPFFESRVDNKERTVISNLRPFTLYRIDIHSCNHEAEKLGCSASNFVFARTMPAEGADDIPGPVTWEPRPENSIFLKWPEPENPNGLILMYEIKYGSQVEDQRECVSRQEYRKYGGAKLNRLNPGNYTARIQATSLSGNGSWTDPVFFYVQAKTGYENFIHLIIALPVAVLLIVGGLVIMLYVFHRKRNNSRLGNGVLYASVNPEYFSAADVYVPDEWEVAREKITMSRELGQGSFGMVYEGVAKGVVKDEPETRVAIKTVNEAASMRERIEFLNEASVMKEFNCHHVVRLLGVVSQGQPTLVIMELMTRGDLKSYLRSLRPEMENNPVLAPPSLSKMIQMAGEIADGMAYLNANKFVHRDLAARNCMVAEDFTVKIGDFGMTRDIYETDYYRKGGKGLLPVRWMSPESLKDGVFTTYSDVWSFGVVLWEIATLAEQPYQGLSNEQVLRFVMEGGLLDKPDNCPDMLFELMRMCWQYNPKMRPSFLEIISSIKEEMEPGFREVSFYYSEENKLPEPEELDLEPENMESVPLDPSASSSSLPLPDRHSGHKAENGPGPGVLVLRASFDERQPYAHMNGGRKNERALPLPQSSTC

[8] = molecular target: Receptor-interacting serine/threonine-protein kinase 3 (Homo sapiens, UniProt Q9Y572)
Chain of Receptor-interacting serine/threonine-protein kinase 3 (Q9Y572 whole entry): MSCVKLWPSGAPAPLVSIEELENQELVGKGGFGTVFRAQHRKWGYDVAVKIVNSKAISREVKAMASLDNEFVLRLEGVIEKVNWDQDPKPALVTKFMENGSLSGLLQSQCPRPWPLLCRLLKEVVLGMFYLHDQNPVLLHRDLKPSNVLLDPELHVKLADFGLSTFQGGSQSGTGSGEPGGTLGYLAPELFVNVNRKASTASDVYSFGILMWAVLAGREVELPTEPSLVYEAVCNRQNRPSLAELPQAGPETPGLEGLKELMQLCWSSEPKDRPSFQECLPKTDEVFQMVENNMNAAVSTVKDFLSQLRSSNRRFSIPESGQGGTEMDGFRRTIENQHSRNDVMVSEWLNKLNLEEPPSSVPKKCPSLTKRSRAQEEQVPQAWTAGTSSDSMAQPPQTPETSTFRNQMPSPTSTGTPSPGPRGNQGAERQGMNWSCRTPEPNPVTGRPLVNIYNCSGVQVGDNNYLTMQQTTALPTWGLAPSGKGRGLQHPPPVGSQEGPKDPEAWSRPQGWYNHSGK

[9] = molecular target: T3, Mitogen-activated protein kinase kinase kinase 2 (Homo sapiens, UniProt Q9Y2U5)
T3 sequence (Q9Y2U5 whole entry): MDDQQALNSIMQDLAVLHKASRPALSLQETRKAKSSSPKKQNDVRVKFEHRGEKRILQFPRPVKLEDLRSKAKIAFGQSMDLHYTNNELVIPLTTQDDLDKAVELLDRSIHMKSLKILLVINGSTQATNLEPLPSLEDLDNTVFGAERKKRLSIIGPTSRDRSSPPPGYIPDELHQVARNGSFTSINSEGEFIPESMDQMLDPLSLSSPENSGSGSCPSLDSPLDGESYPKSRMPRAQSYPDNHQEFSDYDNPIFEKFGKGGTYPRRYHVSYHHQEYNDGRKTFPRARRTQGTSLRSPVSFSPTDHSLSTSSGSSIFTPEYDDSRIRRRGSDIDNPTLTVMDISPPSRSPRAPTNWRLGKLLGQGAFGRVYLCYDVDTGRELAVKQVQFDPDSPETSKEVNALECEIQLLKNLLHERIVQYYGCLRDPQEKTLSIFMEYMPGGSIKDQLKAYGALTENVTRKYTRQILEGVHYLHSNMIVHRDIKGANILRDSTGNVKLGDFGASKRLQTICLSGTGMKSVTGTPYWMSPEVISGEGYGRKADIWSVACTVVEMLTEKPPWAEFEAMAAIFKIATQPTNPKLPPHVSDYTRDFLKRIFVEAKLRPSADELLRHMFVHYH

[10] = molecular target: Tyrosine-protein kinase HCK (Homo sapiens, UniProt P08631)
Chain of Tyrosine-protein kinase HCK (P08631 whole entry): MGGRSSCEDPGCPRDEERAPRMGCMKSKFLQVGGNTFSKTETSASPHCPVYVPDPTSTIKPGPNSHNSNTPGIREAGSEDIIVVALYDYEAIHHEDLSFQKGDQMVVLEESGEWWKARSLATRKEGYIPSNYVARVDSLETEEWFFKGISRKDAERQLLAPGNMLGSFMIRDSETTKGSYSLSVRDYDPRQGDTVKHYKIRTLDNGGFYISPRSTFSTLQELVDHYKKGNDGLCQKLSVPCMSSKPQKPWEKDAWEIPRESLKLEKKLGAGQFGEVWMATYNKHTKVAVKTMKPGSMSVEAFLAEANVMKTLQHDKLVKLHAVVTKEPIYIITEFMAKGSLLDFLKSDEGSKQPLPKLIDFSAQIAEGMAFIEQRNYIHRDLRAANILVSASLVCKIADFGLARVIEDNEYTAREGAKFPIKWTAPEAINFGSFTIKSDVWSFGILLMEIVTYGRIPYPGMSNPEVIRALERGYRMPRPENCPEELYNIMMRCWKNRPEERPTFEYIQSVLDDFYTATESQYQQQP
Note: in the data inactive means no Kd found up to 30 µM.

Chain of MAP kinase-activated protein kinase 2 (P49137 whole entry): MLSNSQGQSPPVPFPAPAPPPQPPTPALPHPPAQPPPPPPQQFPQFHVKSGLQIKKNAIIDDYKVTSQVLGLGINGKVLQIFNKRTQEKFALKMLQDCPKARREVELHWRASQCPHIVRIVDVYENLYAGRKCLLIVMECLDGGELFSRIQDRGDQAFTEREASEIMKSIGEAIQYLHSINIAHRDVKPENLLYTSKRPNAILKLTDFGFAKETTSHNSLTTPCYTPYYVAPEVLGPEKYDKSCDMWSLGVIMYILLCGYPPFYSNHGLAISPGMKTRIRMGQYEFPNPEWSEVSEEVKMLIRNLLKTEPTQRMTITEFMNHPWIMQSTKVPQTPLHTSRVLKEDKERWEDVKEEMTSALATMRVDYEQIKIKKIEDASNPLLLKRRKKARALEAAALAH

| Compound | Kd [1] | Kd [2] | Kd [3] | Kd [4] | Kd [5] | Kd [6] | Kd [7] | Kd [8] | Kd [9] | Kd [10] |
| --- | --- | --- | --- | --- | --- | --- | --- | --- | --- | --- |
| CNC(=O)c1cccc(-c2ccc3c(N4CCOC[C@@H]4C)nc(N4CCOC[C@@H]4C)nc3n2)c1 [VISTUSERTIB] | > 30 µM (inactive) | > 30 µM (inactive) | > 30 µM (inactive) | > 30 µM (inactive) | > 30 µM (inactive) | > 30 µM (inactive) | > 30 µM (inactive) | > 30 µM (inactive) | > 30 µM (inactive) | > 30 µM (inactive) |
| c1cc(OCCN2CCCCC2)cc(-c2n[nH]c3ccc(-c4nc[nH]n4)cc23)c1 [CC-401] | > 30 µM (inactive) | > 30 µM (inactive) | > 30 µM (inactive) | > 30 µM (inactive) | > 30 µM (inactive) | > 30 µM (inactive) | > 30 µM (inactive) | > 30 µM (inactive) | > 30 µM (inactive) | > 30 µM (inactive) |
| COc1ccc2c(OCc3nnc4ccc(-c5ccccc5)nn34)ccnc2c1 [AMG-208] | > 30 µM (inactive) | > 30 µM (inactive) | > 30 µM (inactive) | > 30 µM (inactive) | > 30 µM (inactive) | > 30 µM (inactive) | > 30 µM (inactive) | > 30 µM (inactive) | > 30 µM (inactive) | > 30 µM (inactive) |
| CC(C)CC(=O)Nc1[nH]nc2c1CN(C(=O)C1CCN(C)CC1)C2(C)C [PHA-793887] | > 30 µM (inactive) | 2.56 µM (active) | > 30 µM (inactive) | 0.003 µM | > 30 µM (inactive) | > 30 µM (inactive) | > 30 µM (inactive) | > 30 µM (inactive) | > 30 µM (inactive) | > 30 µM (inactive) |
| CC[C@@](C)(Nc1ccnc(-c2c[nH]c3ncccc23)n1)C(=O)NCC(F)(F)F [DECERNOTINIB] | > 30 µM (inactive) | > 30 µM (inactive) | > 30 µM (inactive) | > 30 µM (inactive) | > 30 µM (inactive) | > 30 µM (inactive) | > 30 µM (inactive) | > 30 µM (inactive) | 4.45 µM (active) | > 30 µM (inactive) |
| Cc1c(Cn2c(C)nc3c(C(=O)O)cc(N4CCOCC4)cc32)cccc1C(F)(F)F [GSK-2636771] | > 30 µM (inactive) | > 30 µM (inactive) | > 30 µM (inactive) | > 30 µM (inactive) | > 30 µM (inactive) | > 30 µM (inactive) | > 30 µM (inactive) | > 30 µM (inactive) | > 30 µM (inactive) | > 30 µM (inactive) |
| Cn1cc(-c2[nH]c3cc(NC(=O)[C@H](N)C4CCCCC4)cc4c3c2C=NNC4=O)cn1 | > 30 µM (inactive) | > 30 µM (inactive) | > 30 µM (inactive) | > 30 µM (inactive) | > 30 µM (inactive) | > 30 µM (inactive) | > 30 µM (inactive) | > 30 µM (inactive) | > 30 µM (inactive) | 0.436 µM (active) |
| NC(=O)c1ccc(N(C(N)=O)c2c(F)cccc2F)nc1-c1ccc(F)cc1F [VX-702] | 0.0003 µM (active) | > 30 µM (inactive) | > 30 µM (inactive) | > 30 µM (inactive) | > 30 µM (inactive) | > 30 µM (inactive) | > 30 µM (inactive) | > 30 µM (inactive) | > 30 µM (inactive) | > 30 µM (inactive) |
| COCCN1CCN(Cc2ccc(-c3n[nH]c4c3C(=O)c3c(NC(=O)NN5CCOCC5)cccc3-4)cc2)CC1 [RGB-286638] | > 30 µM (inactive) | 1.34 µM (active) | > 30 µM (inactive) | > 30 µM (inactive) | > 30 µM (inactive) | > 30 µM (inactive) | > 30 µM (inactive) | > 30 µM (inactive) | > 30 µM (inactive) | > 30 µM (inactive) |
| CCc1nc(C(N)=O)c(Nc2ccc(N3CCC(N4CCN(C)CC4)CC3)c(OC)c2)nc1NC1CCOCC1 [GILTERITINIB] | > 30 µM (inactive) | > 30 µM (inactive) | 4.04 µM (active) | > 30 µM (inactive) | > 30 µM (inactive) | > 30 µM (inactive) | > 30 µM (inactive) | 1.3 µM (active) | 0.536 µM (active) | 1.59 µM (active) |
| COc1cccc(Nc2ncnn3ccc(CN4CC[C@@H](N)[C@H](O)C4)c23)c1 [BMS-690514] | > 30 µM (inactive) | > 30 µM (inactive) | > 30 µM (inactive) | > 30 µM (inactive) | > 30 µM (inactive) | > 30 µM (inactive) | > 30 µM (inactive) | > 30 µM (inactive) | 1.05 µM (active) | 0.712 µM (active) |
| C=CC(=O)Nc1cccc(Nc2nc(Nc3ccc(N4CCN(C(C)=O)CC4)cc3OC)ncc2C(F)(F)F)c1 [ROCILETINIB] | > 30 µM (inactive) | > 30 µM (inactive) | > 30 µM (inactive) | > 30 µM (inactive) | > 30 µM (inactive) | > 30 µM (inactive) | > 30 µM (inactive) | > 30 µM (inactive) | > 30 µM (inactive) | > 30 µM (inactive) |
| O=C(NOC[C@H](O)CO)c1ccc(F)c(F)c1Nc1ccc(I)cc1F [MIRDAMETINIB] | > 30 µM (inactive) | > 30 µM (inactive) | > 30 µM (inactive) | > 30 µM (inactive) | > 30 µM (inactive) | > 30 µM (inactive) | > 30 µM (inactive) | > 30 µM (inactive) | > 30 µM (inactive) | > 30 µM (inactive) |
| O=C(NC[C@H](O)CO)c1ccncc1Nc1ccc(I)cc1F [PIMASERTIB] | > 30 µM (inactive) | > 30 µM (inactive) | > 30 µM (inactive) | > 30 µM (inactive) | > 30 µM (inactive) | > 30 µM (inactive) | > 30 µM (inactive) | > 30 µM (inactive) | > 30 µM (inactive) | > 30 µM (inactive) |
| Cc1cc(-c2cc(OC(=O)c3ccccc3)ccc2Cl)cc2nnc(Nc3ccc(OCCN4CCCC4)cc3)nc12 [TG100-801] | > 30 µM (inactive) | > 30 µM (inactive) | > 30 µM (inactive) | > 30 µM (inactive) | > 30 µM (inactive) | > 30 µM (inactive) | > 30 µM (inactive) | > 30 µM (inactive) | > 30 µM (inactive) | > 30 µM (inactive) |
| O=C(Nc1ccc(OC(F)(F)F)cc1)c1sccc1NCc1ccnc2ccccc12 [OSI-930] | > 30 µM (inactive) | > 30 µM (inactive) | > 30 µM (inactive) | > 30 µM (inactive) | > 30 µM (inactive) | > 30 µM (inactive) | > 30 µM (inactive) | 1.7 µM (active) | > 30 µM (inactive) | > 30 µM (inactive) |
